{"source": "patent US20220323390A1", "about": "“DIETARY SUPPLEMENT TO PROMOTE GUT HEALTH” (TERRAGENICS NUTRITION, INC., priority 2019, published 2022)", "format_in_all_cases": "cell-based, human", "key": {"[1]": {"test_system": "Caco-2/HT29-MTX co-cultures", "assay": "Transepithelial electrical resistance (TEER) of TNFα/IFNγ-treated co-cultures given colonic batch samples", "details": "TNFα/IFNγ stimulation", "source_text": "Caco-2, when seeded on suitable supports, spontaneously differentiate Into mature enterocyte-like cells, characterized by polarization, presence of villi, formation of domes, presence of tight junctions and vectorial transport and expression of apical brush-border enzymes (reviewed by Sambuy, Y., et al. (2005) Cell Biology and Toxicology. 21: 1-26). The mucus layer is mimicked by co-culturing Caco-2 cells with HT29-MTX cells, a mucin producing human cell line. This model is considered a useful in vitro intestinal model.\nBarrier function was evaluated by measuring TEER and expression of tight junction and mucin genes in the co-culture model using TNF alpha/IFN gamma as an inflammatory insult. Inulin and sodium butyrate were used as positive controls. The test products were administered at three different concentrations. […]\nCaco-2/HT29-MTX monolayers were cultured for 14 days, with three medium changes/week, until a functional cell monolayer with a transepithelial electrical resistance (TEER) was obtained. […] Before treatment, the TEER of the Caco-2/HT29-MTX monolayers was measured (0 h time point). The TEER of an empty insert was subtracted from all readings to account for the residual electrical resistance of an insert. […] Cells were treated for 48 h and the TEER was measured at 24 h (=24 h time point) and 48 h (=48 h time point). […]\nTEER was measured again at 24 h and 48 h of incubation. […]"}, "[2]": {"test_system": "claudin-1", "assay": "qPCR gene expression of claudin-1 in Caco-2/HT29-MTX co-culture", "details": "48 h; compared to the TNFα/IFNγ control", "experimental": "(§1) Caco-2/HT29-MTX monolayers were cultured for 14 days, with three medium changes/week, until a functional cell monolayer with a transepithelial electrical resistance (TEER) was obtained. Cells were maintained in Dulbecco's Modified Eagle Medium (DMEM) containing glucose and glutamine and supplemented with HEPES and 20% (v/v) heat-inactivated (HI) fetal bovine serum (FBS). Before treatment, the TEER of the Caco-2/HT29-MTX monolayers was measured (0 h time point). The TEER of an empty insert was subtracted from all readings to account for the residual electrical resistance of an insert. The apical compartment (containing the Caco-2/HT29-MTX cells) was filled with sterile-filtered (0.22 μm) colonic batch suspensions. […] Cells were treated for 48 h and the TEER was measured at 24 h (=24 h time point) and 48 h (=48 h time point). […]\n(§2) After 48 h, cells were lysed in RNA lysis buffer, centrifuged and the […] collected. qPCR is performed for tight junction genes (claudin-1, -2, -3 and -4, and occludin) and mucin genes (mucin 3); 2 housekeeping genes were Included. […] Mucins can be measured as disclosed for example in Leteutre, E. et al, Biology of the Cell 96 (2004) 145-151. Mucin turnover can be assessed as described for example in Schneider, H. et al, Nature Scientific Reports | (2018) 8:5760 | DOI:10.1038/s41598-018-24148-x. […]"}, "[3]": {"test_system": "claudin-3", "assay": "qPCR gene expression of claudin-3 in Caco-2/HT29-MTX co-culture", "details": "48 h; compared to the TNFα/IFNγ control", "experimental": "as §1, §2"}, "[4]": {"test_system": "claudin-4", "assay": "qPCR gene expression of claudin-4 in Caco-2/HT29-MTX co-culture", "details": "48 h; compared to the TNFα/IFNγ control", "experimental": "as §1, §2"}, "[5]": {"test_system": "occludin", "assay": "qPCR gene expression of occludin in Caco-2/HT29-MTX co-culture", "details": "48 h; compared to the TNFα/IFNγ control", "experimental": "as §1, §2"}, "[6]": {"test_system": "claudin-2", "assay": "qPCR gene expression of claudin-2 in Caco-2/HT29-MTX co-culture", "details": "48 h; compared to the TNFα/IFNγ control", "experimental": "as §1, §2"}, "[7]": {"test_system": "mucin-3", "assay": "qPCR gene expression of mucin-3 in Caco-2/HT29-MTX co-culture", "details": "48 h; compared to the TNFα/IFNγ control", "experimental": "as §1, §2"}}, "data": [{"smiles": "CCCC(=O)[O-].[Na+]", "note": "[Sodium butyrate]", "values": [{"measurement": "decrease in TEER", "setting": "[1]; 24 h of incubation", "value": "approximately 80%"}, {"measurement": "TEER relative to initial value", "setting": "[1]; 48 h of incubation", "value": "increased the TEER above its initial value"}, {"measurement": "expression of claudin-1", "setting": "[2]", "value": "No effect"}, {"measurement": "expression of claudin-3", "setting": "[3]", "value": "increased the expression"}, {"measurement": "expression of claudin-4", "setting": "[4]", "value": "increased the expression"}, {"measurement": "expression of occludin", "setting": "[5]", "value": "increased the expression"}, {"measurement": "expression of claudin-2", "setting": "[6]", "value": "decreased the expression"}, {"measurement": "expression of mucin-3", "setting": "[7]", "value": "strongly increased the expression"}]}]}
